“Also recorded” adds a separate entry of the source.
System: A431 cell pair cell-cell junction
Assay: Displacement-controlled stretch test of a single cell pair treated with contractility modulators
Assay type: cell-based
Description: To apply strain to the cell-cell junction, the test platform was placed with deposited cells under the AFM integrated with an inverted microscope. An AFM probe with a through-hole drilled at the front end using a focused ion beam (FIB) is positioned above the micropillar on Island 2 and then lowered to capture it within the through-hole. With this, displacement was applied and displacement rates were tried to investigate the mechanical behavior of the cell-cell junction with obtained stress-strain curves (as discussed below with reference to FIG. 12).
The cell pair was treated with cellular contractility modulators, RhoA Activator I. CN01, and myosin II inhibitor: blebbistatin (Bleb), to examine the impact of actomyosin activity on the mechanical behavior of the cell pair under mechanical stress. Stress-strain curves collected at 0.5% s^−1 strain rate show a clear contrast between samples treated with CN01, Bleb, and DMSO control. […] The stress-strain curves were then analyzed using the constitutive model. […] The increase (decrease) in both η and E2 by CN01 (Bleb) is consistent with the enhanced (reduced) stress fiber formation.
Zyxin staining was performed to visualize the focal adhesion points between cells and the structure. After fixing the cells (see above), the anti-zyxin antibody (Sigma) with a ratio of 1:250 with PBS was added to the sample and refrigerated for 24 hours. The solution was then removed, and the sample was washed with PBS. PBS was replaced by Goat anti-Rabbit IgG (H+L), Superclonal™ Recombinant Secondary Antibody, Alexa Fluor 647 (Thermofisher) and incubated for 1 hour at 37° C. Finally, the sample was washed with PBS and the actin and nuclei staining protocol were performed. Pharmacological treatments modulating cell contractility included 3 μM blebbistatin (Bleb) (Sigma-Aldrich) for 2 h and 1 unit/ml Rho Activator I (CN01; Cytoskeleton, Inc., Denver, CO) for 30 min.
A modified version of MATLAB digital image correlation (DIC) was used to analyze the frames from the stretch test. The first frame was considered as the reference and the rest of the frames were compared to the reference frame to calculate the displacement of each island. A region of interest with markers within the region was defined for both islands. Then, the MATLAB code calculated the markers' new coordinates with respect to the first frame, from which the displacement of the islands was calculated. The force is defined by the Island 1 displacement multiplied by its stiffness, and the stress is acquired by dividing the force by the junction cross-section (approximately 120 μm^2). The strain is then calculated as the difference between the islands' displacements divided by the cell-cell junction's initial length (approximately 20 μm).
Each stretch test was recorded with a screen recorder software (Camtasia) and the movie was divided into frames that were analyzed with a customized DIC-based program to calculate each island's movement. In this method, a region of interest is defined and, within this region, a few markers are placed. The higher the number of markers, the better the resolution of the calculated displacement is. Then, when the coordinates of these markers change, a corresponding red marker appears (FIGS. 12A and 12B). In the first frame, both initial and displaced positions of markers are completely overlapped so just red markers are shown. […] The strain is calculated by dividing the difference of both islands' displacements by the initial length […]. […]

[1] = 0.5% s^-1 strain rate, fit of stress-strain curves

**Q.** Which results are given for `Cc1ccc2c(c1)C(=O)C1(O)CCN(c3ccccc3)C1=N2` (centres unmarked) [Bleb, blebbistatin]?
**A.** rupture of the cell-cell adhesion junction (0.5% s^-1 (100 nm/s) strain rate): ruptured at the initial stages; overall stress level compared with controls (0.5% s^-1 strain rate (100 nm/s), CN01 1 unit/ml 30 min, Bleb 3 μM 2 h, vs DMSO control): reduces the stress accumulation; also recorded: stress level was low compared to other conditions; Membrane stiffness, E1 (MSLS model fit) [1]: stays the same for all conditions; elastic moduli of the intracellular components, E2 (MSLS model fit) [1]: reduces them; viscosity, η (MSLS model fit) [1]: reduces them

— patent publication US20230393170A1, “IN SITU MECHANICAL CHARACTERIZATION OF A SAMPLE STRAIN” (BOARD OF REGENTS OF THE UNIVERSITY OF NEBRASKA, priority 2020, published 2023)
